“And” between values parts separate entries of the source, which are not always exact repeats. Equal entries are not always repeated. The source made the active and inactive calls. How the calls were made is not given here.
Molecular target: CCHF virus vOTU protease domain (L polyprotein)
Test: Crimean Congo hemorrhagic fever virus vOTU protease, Pep AMC substrate, counterscreen, confirmatory (AID 720577)
Conditions: purified vOTU, fluorescence

| SMILES | IC50 |
| --- | --- |
| O=C(O)c1cccc(NC2=C(N3CCOCC3)C(=O)c3ccccc3C2=O)c1 | inactive |
| CCc1ccc(S(=O)(=O)/N=C2\C=C(Nc3cccc(C(=O)O)c3)C(=O)c3ccccc32)cc1 | 2.51 µM |
| Cc1ccc(NC2=C(N3CCCCC3)C(=O)c3ccccc3C2=O)cc1 | inactive |
| O=C1C(=O)c2cccnc2-c2ncccc21 | inactive |
| Cc1c(Cl)cnc(NC(=O)COC(=O)c2ccc([N+](=O)[O-])s2)c1Cl | inactive |
| S=C(Nc1ccc2nsnc2c1)N1CCCCCC1 | inactive |
| O=[N+]([O-])c1ccccc1-c1ccc(C(=S)N2CCCC2)o1 | inactive |
| O=c1[nH]c(Nc2ccccc2)cc2cc(Br)ccc12 | 1.45 µM |
| O=C1C(Nc2ccccc2)=C(N2CCCCC2)C(=O)c2ccccc21 | inactive |
| O=S(=O)(c1ccc2nc(-c3ccco3)c(-c3ccco3)nc2c1)N1CCOCC1 | > 115 µM (inactive) |
| CC1OC2CC(=O)OC2C2=C1C(=O)c1c(O)cccc1C2=O (stereo not given) | inactive |
| O=S(=O)(N=C1C=CC(=NS(=O)(=O)c2ccccc2)c2ccccc21)c1ccccc1 | inactive |
| O=S(=O)(Nc1c(S(=O)(=O)c2ccccc2)c2nc3ccccc3nc2n1C1CCCCC1)c1ccccc1 | > 115 µM (inactive) |
| O=C(O)c1ccc(NC2=C/C(=N/S(=O)(=O)c3ccccc3)c3ccccc3C2=O)cc1 | 1.03 µM |
| COc1ccc(-n2c3nc4ccccc4nc3c3c(=N)oc(C)nc32)cc1 | > 115 µM (inactive) |
| O=C(c1ccco1)[C@@H]1[C@@H]2C(=O)N(c3ccc(Br)cc3)C(=O)[C@@H]2C2c3ccccc3C=CN21 (stereo not given in full) | inactive |
| S=C(Nc1ccc(Cl)cc1)Nc1cccc2cnccc12 | 8.74 µM |
| O=C(NCCCO)c1ccc2nc(-c3ccco3)c(-c3ccco3)nc2c1 | inactive |
| CC(=O)N(/N=C1\Sc2ccccc2C1=O)c1ccccc1C | inactive |
| O=C1C=C(Nc2ccccc2C(=O)O)c2ccccc2C1=O | 7.39 µM |
| O=C(O)c1cc(O)c2c(c1)[C@H]([C@H]1c3cc(C(=O)O)cc(O)c3C(=O)c3c(O[C@@H]4O[C@H](CO)[C@@H](O)[C@H](O)[C@H]4O)cccc31)c1cccc(OC3O[C@H](CO)[C@@H](O)[C@H](O)[C@H]3O)c1C2=O (stereo not given in full) | 7.68 µM |
| CCCCCCCCCCCCCCCC[n+]1ccccc1 | 7.79 µM and 8.46 µM and 6.99 µM |
| O=C(NC1=CC(=O)c2ccccc2C1=O)c1ccccc1 | inactive |
| O=[N+]([O-])c1c(Nc2ccccn2)cc(Cl)c2nonc12 | inactive |
| CC[C@H](CO)Oc1cc(NCc2cccc(N)c2)c2ncn(C(C)C)c2c1 | inactive |
| CC(C)=CCC1=C(OCC(=O)O)C(=O)c2ccccc2C1=O | inactive |
| Cc1ccccc1-c1cc2c(nn1)-c1ccccc1C2=O | 2.23 µM |

| SMILES | IC50 |
| --- | --- |
| O=C1Cc2ccccc2C(=O)N1Cc1ccccc1 | 1.3 µM |
| O=C(O)c1ccc(NC2=C(n3nnc4ccccc43)C(=O)c3ccccc3C2=O)cc1 | inactive |
| COc1ccc(NC(=S)Nc2ccc3nsnc3c2)cc1 | 6.9 µM |
| CC(NC1=CC(=O)c2cccnc2C1=O)C(O)c1ccccc1 (stereo not given) | 4.33 µM |
| O=C1C(=NO)CCc2ccccc21 | inactive |
| O=C(O)c1ccc(S(=O)(=O)/N=C2\C=C(Nc3ccccc3F)C(=O)c3ccccc32)cc1 | 1.24 µM |
| COc1cc(NC(=O)COC(=O)c2ccc([N+](=O)[O-])s2)cc(OC)c1OC | inactive |
| O=C(COC(=O)c1ccc([N+](=O)[O-])s1)NCc1ccc(F)cc1 | inactive |
| COc1cc2c(cc1O)[C@@H]1Cc3ccc(OC)c(O)c3CN1CC2 | inactive |
| CC(C)(C)c1cc[n+](C2=C([O-])c3ccccc3C(=O)/C2=N\S(=O)(=O)c2cccs2)cc1 | inactive |
| O=C1C(=O)c2ccccc2-c2ccccc21 | 3.75 µM |
| Cc1nc2c(o1)C(=O)c1ccccc1C2=Nc1ccccc1 | inactive |
| CCN(CC)CCCC(C)n1c2nc(=O)[nH]c(=O)c-2nc2cc(Cl)ccc21 (stereo not given) | 5.44 µM |
| O=S(=O)(Nc1cc(Sc2ncn[nH]2)c(O)c2ccccc12)c1ccccc1 | 2.16 µM |
| Oc1c(C=Nc2cccc3nsnc23)ccc2ccccc12 | inactive |
| CCc1cc[n+](C2=C([O-])c3ccccc3C(=O)/C2=N\S(=O)(=O)c2cccs2)cc1 | inactive |
| CC1=C(SCc2ccccc2)C(=O)c2ccccc2C1=O | 9.91 µM |
| CN1/C(=C\C=C2C(=O)NC(=O)NC2=O)C(C)(C)c2ccccc21 | inactive |
| COC1=C(Br)C(=O)c2nc(C)ccc2C1=O | inactive |
| Cc1ccc(CNc2ccc(O)cc2)cc1 | inactive |
| O=C1OC(Nc2cc(Br)cc3cccnc23)c2ccccc21 (stereo not given) | 5.44 µM |
| CN(C)c1ncc(C2=C(Cl)C(=O)C(N3CCCC3)=C(Cl)C2=O)s1 | inactive |
| O=C(/C=C/c1ccc(O)cc1)c1ccc(NC2=C(N3CCCCC3)C(=O)c3ccccc3C2=O)cc1 | inactive |
| CCC(CNc1cc(OC)cc2cccnc12)NC1CCCCC1 (stereo not given) | 6.96 µM |
| CC1CCCC(NC(=O)COC(=O)c2ccc([N+](=O)[O-])s2)C1C (stereo not given) | inactive |
| CCOC(=O)N=Nc1c2ccccc2c2nc3no[nH]c3nc12 | 7.75 µM |
| Oc1c(N=Nc2nn[nH]n2)ccc2ccccc12 | inactive |

| SMILES | IC50 |
| --- | --- |
| COc1cc(Br)c(C(=O)c2nccc3cc(OC)c(OC)cc23)cc1OC | 1.13 µM |
| CC(=O)[C@H]1[C@@H]2C(=O)N(c3cccc(Cl)c3)C(=O)[C@@H]2[C@H]2c3ccccc3C=CN21 | inactive |
| COc1cc(C(=O)c2nccc3cc(OC)c(OC)cc23)c([N+](=O)[O-])cc1OC | 4.04 µM |
| O=C(/C=C/c1ccc([N+](=O)[O-])s1)N1CCCCC1 | > 115 µM (inactive) |
| O=C1Nc2ccc([N+](=O)[O-])cc2C1=Nc1cccc(CO)c1 | inactive |
| CC(=O)N(C1=C(Cl)C(=O)c2ccccc2C1=O)C1CCCCC1 | inactive |
| O=C(COC(=O)c1ccc([N+](=O)[O-])s1)Nc1ccccc1 | inactive |
| CC(C)C[C@H](NC(=O)c1[nH]cnc1C(=O)N[C@@H](C)C(=O)OC(C)(C)C)C(=O)OC(C)(C)C | inactive |
| O=C1C=C(Nc2ccccc2)c2ccccc2C1=O | inactive |
| Cc1oc2c(c1C(=O)N1CCOCC1)C(=O)c1ccccc1C2=O | inactive |
| NC1=C(Cl)C(=O)c2ccc(S(N)(=O)=O)cc2C1=O | 0.387 µM |
| Cc1cc(=O)c2c(o1)C(=O)c1occc1C2=O | inactive |
| COc1cccc2c1C(=O)c1c(O)c3c(c(O)c1C2=O)C[C@@](O)(C(=O)CO)C[C@@H]3O[C@H]1C[C@H](N)[C@H](O)[C@H](C)O1 | inactive |
| COc1ccc(N2C(=O)[C@@H]3[C@H](C2=O)[C@H]2c4ccccc4C=CN2[C@@H]3C(C)=O)cc1 | inactive |
| N#CC1=C(S)N(c2ccccc2)C(c2ccc(-c3ccc(Cl)c(Cl)c3)o2)NC1=O (stereo not given) | > 115 µM (inactive) |
| CN(C)c1ccc(C=c2c3cc(O)ccc3n3c2cc(-c2ccccc2)[n+]3C)cc1 | 4.33 µM |
| C=CCN(CC=C)C(=S)Nc1ccc2nsnc2c1 | inactive |
| O=C1C=C(N2CCCCC2)c2ccccc2C1=O | inactive |
| CCCCCCCCCCCCN1[C@@H](CC(=O)O)c2cc(F)ccc2S1(=O)=O | inactive |
| CN1CCN(C2=C(Cl)C(=O)c3ccccc3C2=O)CC1 | 1.07 µM |
| Cc1ccccc1NC1=C/C(=N\S(=O)(=O)c2ccc(C(=O)O)cc2)c2ccccc2C1=O | 0.536 µM |
| c1coc(-c2nnc(-c3ccco3)nn2)c1 | inactive |
| O=C1C(Cl)=C(NCCCO)C(=O)c2ccccc21 | inactive |
| CC[n+]1c(-c2ccccc2)c2cc(N)ccc2c2ccc(N)cc21 | 3.32 µM |
| Cc1ccc(S(=O)(=O)/N=C2\C=C(Nc3cccc(C(=O)O)c3)C(=O)c3ccccc32)cc1 | 1.99 µM |
| O=C1C(Nc2cccc(O)c2)=C(N2CCCCC2)C(=O)c2ccccc21 | inactive |
| NC1=CC(=O)C(=O)c2cccnc21 | 4.94 µM |

| SMILES | IC50 |
| --- | --- |
| CC(=O)c1ccc(NC2=C(N3CCOCC3)C(=O)c3ccccc3C2=O)cc1 | inactive |
| CC1(OC(=O)C2CCCC2)C(=O)C=C2C=C(c3ccsc3)N(CCCCO)C=C2C1=O (stereo not given) | inactive |
| CN(C)S(=O)(=O)c1cccc(NC(=S)Nc2cccc3cnccc23)c1 | inactive |
| CC1COCC(C)N1C1=C(Cl)C(=O)c2ccccc2C1=O (stereo not given) | inactive |
| COc1cc(CCNC2=CC(=O)c3ncccc3C2=O)ccc1O | inactive |
| CCCNC1=C(N(C(C)=O)c2cccc(F)c2)C(=O)c2ccccc2C1=O | > 12.7 µM (inactive) |
| C=CCN1C(=O)/C(=C/c2ccc(OC(C)=O)c(OCC)c2[N+](=O)[O-])SC1=S | inactive |
| COc1cc(NCCCCCCN)c2ncccc2c1OC | 5.97 µM |
| Cc1cccc(NC(=O)c2sc3nc4c(c(-c5cccs5)c3c2N)CN(C)CC4)c1 | inactive |
| CN1CCC/C1=C/C=C1\SC(=S)NC1=O | inactive |
| C[n+]1c(-c2ccccc2)c2cc(N)ccc2c2ccc(N)cc21 | inactive |
| CC(=O)N(C1=C(Cl)C(=O)c2ccccc2C1=O)c1ccc(C(=O)O)cc1 | 4.77 µM |
| COC(=O)c1nc(-c2ccc3c(n2)C(=O)C(N)=C(OC)C3=O)c(N)c(-c2ccc(OC)c(OC)c2O)c1C | 2.58 µM |
| CC(=O)N(C)c1ccc(N=Cc2cc3c(cc2[N+](=O)[O-])OCO3)cc1 | inactive |
| COc1ccc(/C=N/NC(=O)c2nn(-c3ccccc3)c(=O)c3c(N)scc23)cc1 | inactive |
| O=C(COC(=O)c1ccc([N+](=O)[O-])s1)Nc1ccc(Cl)cn1 | > 115 µM (inactive) |
| Cc1ccc(NC2=C/C(=N/S(=O)(=O)c3cccs3)c3ccccc3C2=O)cc1 | 1.79 µM |
| O=C1C(SCCO)=C(SCCO)C(=O)c2ccccc21 | 7.34 µM |
| O=C1NNC(c2ccccc2)=N/C1=C\c1ccccc1Cl | inactive |
| CCCCCCCCCCCCCCCC[n+]1cccc2ccccc21 | 4.2 µM |
| CC(C)NC1=C(Cl)C(=O)c2ccccc2C1=O | inactive |
| Nc1cc2c(cc1Br)[nH]c(=O)c1ccccc12 | 4.57 µM |
| NS(=O)(=O)c1ccc(NC2=CC(=O)C(=O)c3ccccc32)cc1 | inactive |
| O=c1[nH]c(=S)[nH]c2c1C(c1ccc(Br)cc1)c1c([nH]c(=S)[nH]c1=O)O2 | inactive |

Source: PubChem BioAssay AID720577 (The Scripps Research Institute Molecular Screening Center, 2013)
